Tested on: A549 cells
Assay: Combination dose-matrix cell viability assay (CellTiter-Blue / alamar blue), A549
Assay type: cell-based
Details: in the presence of increasing concentrations of cladribine
From the text: The inhibition ranges from 0% at the untreated level to 100% when T=0.
This effectively calculates a volume between the measured and Loewe additive response surfaces, weighted towards high inhibition and corrected for varying dilution factors.

CCN1CCN(Cc2ccc(-c3cc4c(N[C@H](C)c5ccccc5)ncnc4[nH]3)cc2)CC1 [{6-[4-(4-ethyl-piperazin-1-ylmethyl)-phenyl]-7H-pyrrolo[2,3-d]pyrimidin-4-yl]-((R)-1-phenyl-ethyl)-amine]
change in potency of the Erb-B/VEGF inhibitor: significant increase in the potency
